Measured values from ChEMBL document CHEMBL5537206 (J Med Chem, 2024).
The source made the active and inactive calls. The calls are words filed in the database; no cut-off is given here.

Columns and labels:
[1] = tested on: MCF7; experiment: Antiproliferative activity against human MCF7 cells incubated for 72 hrs by MTT assay; format: functional, cell-based; conditions: MCF7, 72 h
[2] = tested on: NCI-H1975; experiment: Antiproliferative activity against human NCI-H1975 cells incubated for 72 hrs by MTT assay; format: functional, cell-based; conditions: NCI-H1975, 72 h
[3] = tested on: Osimertinib-resistant NCI-H1975 cell; experiment: Antiproliferative activity against human Osimertinib-resistant NCI-H1975 cell (AZDR) incubated for 72 hrs by MTT assay; format: functional, cell-based
[4] = tested on: Osimertinib-resistant NCI-H1975 cell; experiment: Induction of apoptosis in human Osimertinib-resistant NCI-H1975 cell (AZDR) assessed as early apoptotic cells at 1 uM incubated for 24 hrs by Annexin V and propidium iodide staining based flow cytometry analysis (reference value: 3.38%); format: functional
[5] = tested on: Mus musculus; experiment: In vivo inhibition of ACK1 in BALB/c nude mouse xenografted with human Osimertinib-resistant NCI-H1975 cell (AZDR) assessed as downregulation of ACK1 phosphorylation at 10 mg/kg, po measured after 22 days; format: functional, organism-based; conditions: time 22.0 day
[6] = tested on: Osimertinib-resistant NCI-H1975 cell; experiment: Induction of apoptosis in human Osimertinib-resistant NCI-H1975 cell (AZDR) assessed as late apoptotic cells at 1 uM incubated for 24 hrs in presence of dasatinib by Annexin V and propidium iodide staining based flow cytometry analysis (reference value: 1.06%); format: functional
[7] = tested on: Osimertinib-resistant NCI-H1975 cell; experiment: Induction of apoptosis in human Osimertinib-resistant NCI-H1975 cell (AZDR) assessed as late apoptotic cells at 1 uM incubated for 24 hrs by Annexin V and propidium iodide staining based flow cytometry analysis (reference value: 1.06%); format: functional
[8] = tested on: Mus musculus; experiment: In vivo inhibition of EGFR L858R/T790M mutant in BALB/c nude mouse xenografted with human Osimertinib-resistant NCI-H1975 cell (AZDR) assessed as downregulation of AKT phosphorylation at 10 mg/kg, po measured after 22 days; format: functional, organism-based; conditions: time 22.0 day
[9] = tested on: Mus musculus; experiment: In vivo inhibition of EGFR L858R/T790M mutant in BALB/c nude mouse xenografted with human Osimertinib-resistant NCI-H1975 cell (AZDR) assessed as downregulation of EGFR phosphorylation at 10 mg/kg, po measured after 22 days; format: functional, organism-based; conditions: time 22.0 day
[10] = tested on: Osimertinib-resistant NCI-H1975 cell; experiment: Induction of apoptosis in human Osimertinib-resistant NCI-H1975 cell (AZDR) assessed as early apoptotic cells at 1 uM incubated for 24 hrs in presence of dasatinib by Annexin V and propidium iodide staining based flow cytometry analysis (reference value: 3.38%); format: functional
[11] = tested on: Osimertinib-resistant NCI-H1975 cell; experiment: Anticancer activity against human Osimertinib-resistant NCI-H1975 cell (AZDR) xenografted in BALB/c nude mouse model assessed as increase in tumor cell apoptosis at 10 mg/kg, po in presence of dasatinib by TUNEL assay; format: functional, organism-based
[12] = tested on: Osimertinib-resistant NCI-H1975 cell; experiment: Anticancer activity against human Osimertinib-resistant NCI-H1975 cell (AZDR) xenografted in BALB/c nude mouse model assessed as increase in tumor cell apoptosis at 10 mg/kg, po by TUNEL assay; format: functional, organism-based
[13] = tested on: Osimertinib-resistant NCI-H1975 cell; experiment: Induction of apoptosis in human Osimertinib-resistant NCI-H1975 cell (AZDR) assessed as early apoptotic cells at 1 uM incubated for 24 hrs in presence of osimertinib by Annexin V and propidium iodide staining based flow cytometry analysis (reference value: 3.38%); format: functional
[14] = tested on: Osimertinib-resistant NCI-H1975 cell; experiment: Induction of apoptosis in human Osimertinib-resistant NCI-H1975 cell (AZDR) assessed as late apoptotic cells at 1 uM incubated for 24 hrs in presence of osimertinib by Annexin V and propidium iodide staining based flow cytometry analysis (reference value: 1.06%); format: functional
[15] = tested on: Osimertinib-resistant NCI-H1975 cell; experiment: Anticancer activity against human Osimertinib-resistant NCI-H1975 cell (AZDR) xenografted in BALB/c nude mouse model assessed as increase tumor cell apoptosis at 10 mg/kg, po in presence of osimertinib by TUNEL assay; format: functional, organism-based

| Structure (SMILES) | IC50 [1] [µM] | IC50 [2] [µM] | IC50 [3] [µM] | also measured |
| --- | --- | --- | --- | --- |
| C=CC(=O)Nc1cccc(Nc2nc(Nc3cnn(C4CCN(C)CC4)c3)nc3ccc(Cl)cc23)c1 | 5.26 | 2.35 | 4.53 |  |
| C=CC(=O)Nc1cc(Nc2nccc(-c3cn(C)c4ccccc34)n2)c(OC)cc1N(C)CCN(C)C [OSIMERTINIB] | 1.16 | 0.015 | 4 | Activity [4]: 2.86%; inhibition [5]: Active; Activity [6]: 20.6%; Activity [7]: 1.22%; inhibition [8]: inactive; inhibition [9]: Active; Activity [10]: 19.6%; Activity [11]: Active; Activity [12]: inactive |
| C=CC(=O)Nc1cccc(Nc2nc(Nc3cnn(C)c3)nc3ccc(OC)cc23)c1 | 2.2 | 1.52 | 4.64 |  |
| C=CC(=O)Nc1cccc(Nc2nc(Nc3ccc(-n4cccn4)cc3)nc3ccc(Cl)cc23)c1 | 4.78 | 1.51 | 5.84 |  |
| C=CC(=O)Nc1cccc(Nc2nc(Nc3c(C)nn(C)c3C)nc3ccc(Cl)cc23)c1 | 4.4 | 2.89 | 1.62 |  |
| C=CC(=O)Nc1cccc(Nc2nc(Nc3cnn(C)c3)nc3cc(OC)ccc23)c1 | 1.34 | 1.38 | 2.5 |  |
| C=CC(=O)Nc1cccc(Nc2nc(Nc3cnn(C)c3)nc3cc(C)ccc23)c1 | 0.52 | 1.59 | 3.34 |  |
| C=CC(=O)Nc1cccc(Nc2nc(Nc3cnn(C)c3)nc3cccc(F)c23)c1 | 9.16 | 1.06 | 3.44 |  |
| C=CC(=O)Nc1cccc(Nc2nc(Nc3cnn(C)c3)nc3cc(Cl)ccc23)c1 | 2.95 | 15 | 13.8 |  |
| C=CC(=O)Nc1cccc(Nc2nc(Nc3cnn(C)c3)nc3ccc(C(F)(F)F)cc23)c1 | 18.2 | 1.56 | 2.75 |  |
| C=CC(=O)Nc1cccc(Nc2nc(Nc3cnn(C)c3)nc3ccccc23)c1 | 4.6 | 0.94 | 2.81 |  |
| C=CC(=O)Nc1cccc(Nc2nc(Nc3cn(C)nc3C(F)(F)F)nc3ccc(Cl)cc23)c1 | 5.72 | 1.02 | 3.36 |  |
| C=CC(=O)Nc1cccc(Nc2nc(Nc3cnn(CC(F)(F)F)c3)nc3ccc(Cl)cc23)c1 | 6.83 | 2.15 | 3.55 |  |
| C=CC(=O)Nc1cccc(Nc2nc(Nc3ccn(C)n3)nc3ccc(Cl)cc23)c1 | 12.4 | 1.37 | 3.55 |  |
| C=CC(=O)Nc1cccc(Nc2nc(Nc3cnn(C)c3)nc3ccc(C)cc23)c1 | 1.24 | 1.86 | 2.51 |  |
| C=CC(=O)Nc1cccc(Nc2nc(Nc3cccc(C)c3)nc3ccc(Cl)cc23)c1 | 7.73 | 2.68 | 4.77 |  |
| C=CC(=O)Nc1cccc(Nc2nc(Nc3cnn(CCOC)c3)nc3ccc(Cl)cc23)c1 | 6.56 | 3.18 | 3.71 |  |
| C=CC(=O)Nc1cccc(Nc2nc(Nc3ccccc3C)nc3ccc(Cl)cc23)c1 | 8.26 | 6.58 | 7.31 |  |
| C=CC(=O)Nc1cccc(Nc2nc(Nc3cccc(Br)c3)nc3ccc(Cl)cc23)c1 | 3.58 | 2.94 | 2.8 |  |
| C=CC(=O)Nc1cccc(Nc2nc(Nc3cnn(-c4ccccc4)c3)nc3ccc(Cl)cc23)c1 | 15.2 | 10.1 | 8.13 |  |
| C=CC(=O)Nc1cccc(Nc2nc(Nc3cn(C)nc3C)nc3ccc(Cl)cc23)c1 | 15 | 4.05 | > 20 |  |
| C=CC(=O)Nc1cccc(Nc2nc(Nc3cnn(C)c3)nc3ccc(I)cc23)c1 | 1.84 | 0.75 | 0.98 |  |
| C=CC(=O)Nc1cccc(Nc2nc(Nc3cnn(C)c3)nc3c(Cl)cccc23)c1 | 1.72 | 2.21 | > 20 |  |

| Structure (SMILES) | IC50 [1] [µM] | IC50 [2] [µM] | IC50 [3] [µM] | also measured |
| --- | --- | --- | --- | --- |
| C=CC(=O)Nc1cccc(Nc2nc(Nc3cnn(C)c3)nc3ccc(Br)cc23)c1 | 1.64 | 1.1 | 2.35 |  |
| C=CC(=O)Nc1cccc(Nc2nc(Nc3cnn(C)c3)nc3ccc(F)cc23)c1 | 2.36 | 8.76 | 1.52 |  |
| C=CC(=O)Nc1cccc(Nc2nc(Nc3ccc(C)cc3)nc3ccc(Cl)cc23)c1 | 4.24 | 2.29 | 6.56 |  |
| C=CC(=O)Nc1cccc(Nc2nc(Nc3cnn(CCN4CCOCC4)c3)nc3ccc(Cl)cc23)c1 | 8.78 | 1.7 | 3.45 |  |
| C=CC(=O)Nc1cccc(Nc2nc(Nc3cnn(C)c3)nc3cccc(Cl)c23)c1 | 1.85 | 0.81 | 2.44 |  |
| C=CC(=O)Nc1cccc(Nc2nc(Nc3cn[nH]c3)nc3ccc(Cl)cc23)c1 | 5.37 | 2.56 | 4.68 |  |
| C=CC(=O)Nc1cccc(Nc2nc(Nc3cc(C(F)(F)F)n(C)n3)nc3ccc(Cl)cc23)c1 | 10 | 2.36 | 3.45 |  |
| C=CC(=O)Nc1cccc(Nc2nc(Nc3ccc(N(C)CCN(C)C)cc3)nc3ccc(Cl)cc23)c1 | 2.53 | 1.24 | 1.89 |  |
| C=CC(=O)Nc1cccc(Nc2nc(NCCn3cccn3)nc3ccc(Cl)cc23)c1 | 13.7 | 10.1 | 22.8 |  |
| C=CC(=O)Nc1cccc(Nc2nc(Nc3cnn(C)c3)nc3cc(C(F)(F)F)ccc23)c1 | 1.16 | 1.3 | 2.62 |  |
| C=CC(=O)Nc1cccc(Nc2nc(Nc3cnn(Cc4ccccc4)c3)nc3ccc(Cl)cc23)c1 | 1.3 | 3.98 | 3.83 |  |
| Cc1nc(Nc2ncc(C(=O)Nc3c(C)cccc3Cl)s2)cc(N2CCN(CCO)CC2)n1 [DASATINIB ANHYDROUS] |  |  |  | Activity [4]: 10.2%; Activity [13]: 19.6%; inhibition [5]: Active; Activity [7]: 7.4%; inhibition [8]: inactive; Activity [14]: 20.6%; inhibition [9]: Active; Activity [12]: inactive; Activity [15]: Active |
| C=CC(=O)Nc1cccc(Nc2nc(Nc3cnn(C)c3)nc3ccc(Cl)cc23)c1 | 1.23 | 0.95 | 1.04 |  |
| C=CC(=O)Nc1ccc(Nc2nc(Nc3cnn(C)c3)nc3ccc(Cl)cc23)cc1 | 3.58 | 7.58 | 7.35 |  |
| C=CC(=O)Nc1cccc(Nc2nc(Nc3ccnn3C)nc3ccc(Cl)cc23)c1 | 6.89 | 4.25 | 9.47 |  |
| C=CC(=O)Nc1cccc(Nc2nc(Nc3cn(CC)nc3C)nc3ccc(Cl)cc23)c1 | 10.8 | > 20 | 2.14 |  |
| C=CC(=O)Nc1ccccc1Nc1nc(Nc2cnn(C)c2)nc2ccc(Cl)cc12 | 4.26 | 5.63 | 6.53 |  |
| C=CC(=O)Nc1cccc(Nc2nc(Nc3cnn(C)c3)nc3c(F)cccc23)c1 | 3.74 | 2.11 | 3.34 |  |
| C=CC(=O)Nc1cccc(Nc2nc(Nc3cnn(C)c3)nc3cc(F)ccc23)c1 | 11.1 | 1.28 | 17.7 |  |
| C=CC(=O)Nc1cccc(Nc2nc(Nc3cnn(C4CCOCC4)c3)nc3ccc(Cl)cc23)c1 | 2.91 | 1.4 | 3.72 |  |
| C=CC(=O)Nc1cccc(Nc2nc(Nc3cnn(C)c3C)nc3ccc(Cl)cc23)c1 | 3.24 | 1.02 | 3.4 |  |
| CCC(=O)Nc1cccc(Nc2nc(Nc3cnn(C)c3)nc3ccc(Cl)cc23)c1 | 4.68 | 6.35 | 9.58 |  |
| C=CC(=O)Nc1cccc(Nc2nc(Nc3cnn(C(C)(C)C)c3)nc3ccc(Cl)cc23)c1 | 5.64 | 2.1 | 3.94 |  |
